Measurements published in PubChem BioAssay (NCI).
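Results reflect a 48-hour exposure of cells in 96-well plates to compound at five concentrations. GI50 = concentration required for 50% inhibition of growth. Definition used: TGI = concentration required for complete inhibition of growth.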

Tests used:
Test in all cases: growth of human tumour cells (NCI), 48 h
786-0 renal = tested on: 786-0 renal
A498 renal = tested on: A498 renal
A549 NSCLC = tested on: A549 NSCLC
ACHN renal = tested on: ACHN renal
BT-549 breast = tested on: BT-549 breast
CAKI-1 renal = tested on: CAKI-1 renal
CCRF-CEM leukemia = tested on: CCRF-CEM leukemia
COLO 205 colon = tested on: COLO 205 colon
DU-145 prostate = tested on: DU-145 prostate
EKVX NSCLC = tested on: EKVX NSCLC
HCC-2998 colon = tested on: HCC-2998 colon
HCT-116 colon = tested on: HCT-116 colon
HCT-15 colon = tested on: HCT-15 colon
HL-60(TB) leukemia = tested on: HL-60(TB) leukemia
HOP-62 NSCLC = tested on: HOP-62 NSCLC
HOP-92 NSCLC = tested on: HOP-92 NSCLC
HS 578T breast = tested on: HS 578T breast
HT29 colon = tested on: HT29 colon
IGROV1 ovarian = tested on: IGROV1 ovarian
K-562 leukemia = tested on: K-562 leukemia
KM12 colon = tested on: KM12 colon
LOX IMVI melanoma = tested on: LOX IMVI melanoma
M14 melanoma = tested on: M14 melanoma
MALME-3M melanoma = tested on: MALME-3M melanoma
MCF7 breast = tested on: MCF7 breast
MDA-MB-231 breast = tested on: MDA-MB-231 breast
MDA-MB-435 = tested on: MDA-MB-435
MOLT-4 leukemia = tested on: MOLT-4 leukemia
NCI-H23 lung = tested on: NCI-H23 lung
NCI-H460 lung = tested on: NCI-H460 lung
NCI-H522 lung = tested on: NCI-H522 lung
NCI/ADR-RES ovarian = tested on: NCI/ADR-RES ovarian
OVCAR-3 ovarian = tested on: OVCAR-3 ovarian
OVCAR-4 ovarian = tested on: OVCAR-4 ovarian
OVCAR-5 ovarian = tested on: OVCAR-5 ovarian
OVCAR-8 ovarian = tested on: OVCAR-8 ovarian
PC-3 prostate = tested on: PC-3 prostate
RPMI-8226 leukemia = tested on: RPMI-8226 leukemia
RXF 393 renal = tested on: RXF 393 renal
SF-268 CNS = tested on: SF-268 CNS
SF-295 CNS = tested on: SF-295 CNS
SF-539 CNS = tested on: SF-539 CNS
SK-MEL-2 melanoma = tested on: SK-MEL-2 melanoma
SK-MEL-28 melanoma = tested on: SK-MEL-28 melanoma
SK-MEL-5 melanoma = tested on: SK-MEL-5 melanoma
SK-OV-3 ovarian = tested on: SK-OV-3 ovarian
SN12C renal = tested on: SN12C renal
SNB-19 CNS = tested on: SNB-19 CNS
SNB-75 CNS = tested on: SNB-75 CNS
SR leukemia = tested on: SR leukemia
SW-620 colon = tested on: SW-620 colon
T-47D breast = tested on: T-47D breast
TK-10 renal = tested on: TK-10 renal
U251 CNS = tested on: U251 CNS
UACC-257 melanoma = tested on: UACC-257 melanoma
UACC-62 melanoma = tested on: UACC-62 melanoma
UO-31 renal = tested on: UO-31 renal

## CN1CCN(Cc2ccc(NC(=O)c3cncc(C#Cc4c(N)ncc5ccccc45)c3)cc2C(F)(F)F)CC1
786-0 renal
  GI50: 0.89 µM
  TGI: 1.66 µM
A498 renal
  GI50: 0.676 µM
  TGI: 1.35 µM
A549 NSCLC
  GI50: 0.668 µM
  TGI: 1.45 µM
ACHN renal
  GI50: 0.569 µM
  TGI: 1.17 µM
BT-549 breast
  GI50: 1.62 µM
  TGI: 4.7 µM
CAKI-1 renal
  GI50: 0.765 µM
  TGI: 1.44 µM
CCRF-CEM leukemia
  GI50: 0.14 µM
  TGI: 1.47 µM
COLO 205 colon
  GI50: 0.213 µM
  TGI: 0.812 µM
DU-145 prostate
  GI50: 0.716 µM
  TGI: 1.39 µM
EKVX NSCLC
  GI50: 0.572 µM
  TGI: 1.26 µM
HCC-2998 colon
  GI50: 0.619 µM
  TGI: 1.26 µM
HCT-116 colon
  GI50: 0.257 µM
  TGI: 0.892 µM
HCT-15 colon
  GI50: 0.293 µM
  TGI: 0.998 µM
HL-60(TB) leukemia
  GI50: 0.16 µM
  TGI: 0.781 µM
HOP-62 NSCLC
  GI50: 0.733 µM
  TGI: 1.66 µM
HOP-92 NSCLC
  GI50: 0.158 µM
  TGI: 0.836 µM
HS 578T breast
  GI50: 0.64 µM
  TGI: 1.86 µM
HT29 colon
  GI50: 0.18 µM
  TGI: 1.04 µM
IGROV1 ovarian
  GI50: 0.373 µM
  TGI: 1.2 µM
K-562 leukemia
  GI50: 0.005 µM
  TGI: 0.715 µM
KM12 colon
  GI50: 0.005 µM
  TGI: 0.618 µM
LOX IMVI melanoma
  GI50: 0.348 µM
  TGI: 0.979 µM
M14 melanoma
  GI50: 0.203 µM
  TGI: 0.885 µM
MALME-3M melanoma
  GI50: 0.31 µM
  TGI: 0.979 µM
MCF7 breast
  GI50: 0.198 µM
  TGI: 0.853 µM
MDA-MB-231 breast
  GI50: 0.336 µM
  TGI: 1.04 µM
MDA-MB-435
  GI50: 0.291 µM
  TGI: 0.968 µM
MOLT-4 leukemia
  GI50: 0.276 µM
  TGI: 1.37 µM
NCI-H23 lung
  GI50: 0.656 µM
  TGI: 1.46 µM
NCI-H460 lung
  GI50: 0.344 µM
  TGI: 1.04 µM
NCI-H522 lung
  GI50: 0.681 µM
  TGI: 1.53 µM
NCI/ADR-RES ovarian
  GI50: 0.945 µM
  TGI: 2.21 µM
OVCAR-3 ovarian
  GI50: 0.817 µM
  TGI: 1.53 µM
OVCAR-4 ovarian
  GI50: 0.309 µM
  TGI: 1.1 µM
OVCAR-5 ovarian
  GI50: 0.658 µM
  TGI: 1.45 µM
OVCAR-8 ovarian
  GI50: 0.839 µM
  TGI: 1.91 µM
PC-3 prostate
  GI50: 0.687 µM
  TGI: 1.73 µM
RPMI-8226 leukemia
  GI50: 0.835 µM
  TGI: 2.36 µM
RXF 393 renal
  GI50: 0.708 µM
  TGI: 1.39 µM
SF-268 CNS
  GI50: 0.723 µM
  TGI: 1.56 µM
SF-295 CNS
  GI50: 0.786 µM
  TGI: 1.57 µM
SF-539 CNS
  GI50: 0.532 µM
  TGI: 1.13 µM
SK-MEL-2 melanoma
  GI50: 0.782 µM
  TGI: 1.72 µM
SK-MEL-28 melanoma
  GI50: 0.767 µM
  TGI: 1.48 µM
SK-MEL-5 melanoma
  GI50: 0.719 µM
  TGI: 1.38 µM
SK-OV-3 ovarian
  GI50: 1.13 µM
  TGI: 2.01 µM
SN12C renal
  GI50: 0.627 µM
  TGI: 1.31 µM
SNB-19 CNS
  GI50: 0.924 µM
  TGI: 1.76 µM
SNB-75 CNS
  GI50: 0.872 µM
  TGI: 1.61 µM
SR leukemia
  GI50: 0.259 µM
  TGI: 3.7 µM
SW-620 colon
  GI50: 0.185 µM
  TGI: 0.72 µM
T-47D breast
  GI50: 0.831 µM
  TGI: 1.66 µM
TK-10 renal
  GI50: 0.919 µM
  TGI: 1.66 µM
U251 CNS
  GI50: 0.686 µM
  TGI: 1.41 µM
UACC-257 melanoma
  GI50: 0.773 µM
  TGI: 1.6 µM
UACC-62 melanoma
  GI50: 0.791 µM
  TGI: 1.55 µM
UO-31 renal
  GI50: 0.541 µM
  TGI: 1.16 µM
